# T1: rhOP-1 (rhBMP-7) (Homo sapiens, UniProt P18075)
# T1 construct: purchased R&D Systems, Minneapolis, Minn
# T1 sequence (P18075 293-431): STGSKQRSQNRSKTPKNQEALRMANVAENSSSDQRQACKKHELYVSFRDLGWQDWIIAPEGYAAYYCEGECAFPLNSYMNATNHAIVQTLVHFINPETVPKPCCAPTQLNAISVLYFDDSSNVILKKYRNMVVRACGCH
# T2: rhBMP-2 (Homo sapiens, UniProt P12643)
# T2 construct: purchased R&D Systems, Minneapolis, Minn
# T2 sequence (P12643 283-396): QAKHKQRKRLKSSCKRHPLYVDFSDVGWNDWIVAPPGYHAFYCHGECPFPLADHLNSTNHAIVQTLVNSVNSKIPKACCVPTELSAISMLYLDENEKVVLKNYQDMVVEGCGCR
# T3: rmGDF-5 (Mus musculus, UniProt P43027)
# T3 construct: purchased R&D Systems, Minneapolis, Minn
# T3 sequence (P43027 376-495): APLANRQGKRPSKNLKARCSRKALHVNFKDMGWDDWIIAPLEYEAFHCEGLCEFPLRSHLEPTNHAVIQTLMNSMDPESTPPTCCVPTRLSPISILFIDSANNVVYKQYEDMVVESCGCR
# Tests used:
# rhOP-1 (rhBMP-7) = biological target: T1, rhOP-1 (rhBMP-7); assay: Surface plasmon resonance kinetic analysis (Biacore X), ligand rhOP-1; type: binding; details: ligand rhOP-1 (rhBMP-7)
# Method: (§1) The supernatant was decanted and used for analyses. Protein concentrations were determined suing UV spectroscopy at an absorbance of 280 nm. Extinction coefficients were calculated using ProtParam tool (www.expasy.ch/tools/protparam.html). Flow rates ranged from 5 to 50 μl/min, and injection volumes were 20 to 100 μl. To ensure uniformity, an effort was made to react sufficient ligand to the chip to give a baseline value of about 2500 RU (response units). The kinetic constants ka (on rate, association constant, “recognition”) and kd (off rate, dissociation constant, “stability”) as well as the equilibrium constant KD (equilibrium constant, “affinity”) were determined by a Langmuir analysis using BIAevaluation software (version 3.2) installed on the instrument by the manufacturer.
# Swiss-Weber mice = assay: Mouse hindquarter (muscle pouch) ectopic bone formation assay, BBP alone or with rhBMP-2; type: in vivo; details: for Bone Area / Bone Mineral Content: 21 days, mean SE
# Method: The osteogenic activity of material was tested using male Swiss-Weber mice aged 8 to 10 weeks were used (Taconic Farms, Germantown, N.Y.). […] The dried material was placed in a #5 gelatin capsule and sterilized by exposure to chloroform vapor. To conduct the assay, mice were anesthetized using 1% isoflurane delivered in oxygen at 2 l/min through a small animal anesthesia machine (VetEquip, Pleasanton, Calif.). Animals were affixed to a surgery board and the fur over the hindquarters shaved. The skin was cleaned with 70% ethanol and a midline incision made over the spine adjacent to the hindquarters. Blunt dissection with scissors was used to expose the quadriceps muscle on one side. A small pouch was made in the muscle using the point of scissors and the #5 capsule containing the test material was inserted into the pouch. The skin was then closed with three 11 mm Michel surgical clips and the animal returned to its cage for monitoring.
# After 21 days the animals were killed and the hindquarter removed. Radiological examination of the specimens was accomplished using a small parts X-Ray cabinet (Faxitron, Wheeling, Ill.). For quantization of bone formation, bone area and the bone mineral content (BMC) of an area of interest encompassing the site of ectopic bone formation was determined using a PIXImus2 small animal densitometer (GE Lunar, Madison, Wis.). Specimens were then placed in buffered formalin and submitted for routine processing for histological examination.
# rhBMP-2 = biological target: T2, rhBMP-2; assay: Surface plasmon resonance kinetic analysis (Biacore X), ligand rhBMP-2; type: binding
# Method: as §1
# Lewis rats = assay: Posterolateral intertransverse process spinal fusion at L4-L5 (radiographs, manual palpation, micro-CT); type: in vivo, rat; details: ACS with 1000 μg BBP, no rhOP-1, 8 weeks
# Description: A total of 120 male Lewis rats (8 weeks of age, 200-260 g, Charles River, Wilmington, Mass.) were divided into 8 groups. Groups differed only by the materials added to the ACS (5×5×13 mm) that were applied to the surgical sites. The preparation of the implants was previously described in detail. (Alanay, et al., The adjunctive effect of a binding peptide on bone morphogenetic protein enhanced bone healing in a rodent model of spinal fusion. Spine 2008; 33:1709-13). Implanted rhOP-1 was obtained from Stryker Biotech, Hopkinton, Mass. […] Animals were sacrificed 8 weeks after surgery with CO2.
# Surgical Technique. Animals were anesthetized with 2-2.5% isoflurane administered in oxygen (1 L/min) and the surgical site was shaved and disinfected with alternative betadine and 70% alcohol. Animals were premedicated with 0.15 mg buprenorphine and postoperatively received tapered doses every 12 hours for 2 days. […]
# Radiographic Analysis. […] Radiographs were evaluated by 3 independent observers employing the following standardized scale: 0: no fusion; 1: incomplete fusion with bone formation present; and 2: complete fusion. […]
# Manual Assessment of Fusion. Eight weeks after surgery, the spines were removed and evaluated by three blinded independent observers for intersegmental motion. […] Spines were scored as either fused or not fused. […]
# rmGDF-5 = biological target: T3, rmGDF-5; assay: Surface plasmon resonance kinetic analysis (Biacore X), ligand rmGDF-5; type: binding
# Method: The supernatant was decanted and used for analyses. […] Extinction coefficients were calculated using ProtParam tool (www.expasy.ch/tools/protparam.html). Flow rates ranged from 5 to 50 μl/min, and injection volumes were 20 to 100 μl. To ensure uniformity, an effort was made to react sufficient ligand to the chip to give a baseline value of about 2500 RU (response units).
# rhTGF-β = assay: Surface plasmon resonance kinetic analysis (Biacore X), ligand rhTGF-β; type: binding, human
# Method: as §1
# [1] = BBP 50 μg implanted with 5 μg of rhBMP-2, densitometry
# [2] = BBP 500 μg implanted with 5 μg of rhBMP-2, densitometry
kd “stability” (rhOP-1 (rhBMP-7)),kd “stability” (rhBMP-2; ligand rhBMP-2),ectopic calcification in BBP only treatment groups (Lewis rats),kd “stability” (rmGDF-5),kd “stability” (rhTGF-β; ligand rhTGF-β),"KD (kd/ka) “affinity” (rhTGF-β; ligand rhTGF-β on CM-5 chip, Langmuir analysis)",ka “recognition” (rhBMP-2; ligand rhBMP-2),"KD (kd/ka) “affinity” (rhBMP-2; ligand rhBMP-2 on CM-5 chip, Langmuir analysis)",Molecule,"amount of ectopic bone formed, measured by densitometry, versus identical amount of rhBMP-2 alone (Swiss-Weber mice; 500 μg of BBP implanted with 5 μg of rhBMP-2)","histological section of mouse muscle (Swiss-Weber mice; 500 μg of BBP in atelocollagen, 21 days after implantation, H & E stain)","calcification when implanted alone with carrier (radiogram) (Swiss-Weber mice; 500 μg of BBP in atelocollagen, mouse hind quarters, 21 days after implantation)",Bone Area (Swiss-Weber mice; [1]),Bone Mineral Content (Swiss-Weber mice; [1]),Bone Area (Swiss-Weber mice; [2]),Bone Mineral Content (Swiss-Weber mice; [2]),induction of spinal fusion by BBP by itself (Lewis rats),ka “recognition” (rhTGF-β; ligand rhTGF-β)
0.00369 s⁻¹,0.00169 s⁻¹,Nor was ectopic calcification observed,0.00352 s⁻¹,0.00175 s⁻¹,68 nM,,,CSCC[C@@H]1NC(=O)[C@H](CCCNC(=N)N)NC(=O)[C@H](C(C)C)NC(=O)[C@H]([C@@H](C)O)NC(=O)[C@H](CO)NC(=O)[C@H](CCCNC(=N)N)NC(=O)[C@@H](N)CSSC[C@@H](C(=O)O)NC(=O)[C@H](CCCNC(=N)N)NC(=O)[C@H](C(C)C)NC(=O)[C@H](Cc2c[nH]c3ccccc23)NC(=O)[C@H](C(C)C)NC(=O)[C@H](CC(N)=O)NC(=O)[C@H](CCC(N)=O)NC(=O)[C@H](C(C)C)NC(=O)[C@H](CCC(N)=O)NC(=O)[C@H](CCC(=O)O)NC(=O)[C@H](C)NC(=O)[C@H](CO)NC1=O [BBP],consistently greater,dystrophic calcification primarily associated with intramuscular adipose tissue,induced calcification,0.159 ± 0.0606 cm^2,0.00388 ± 0.0017 g,0.226 ± 0.0270 cm^2,0.00528 ± 0.00068 g,did not induce any degree of fusion,27700 M⁻¹ s⁻¹
,0.0055 s⁻¹,,,,,311000 M⁻¹ s⁻¹,17.7 nM,"spp24: parental protein of BBP, secreted phosphoprotein, 24 kD (protein) FPVYDYDPASLKEALSASVAKVNSQSLSPYLFRAFRSSVKRVNALDEDSLTMDLEFRIQETTCRRESEADPATCDFQRGYHVPVAVCRSTVRMSAEQVQNVWVRCHWSSSSGSSSSEEMFFGDILGSSTSRNSYLLGLTPDRSRGEPLYEPSREMRRNFPLGNRRYSNPWPRARVNPGFE",,,,,,,,,

# Reference: patent US9072709B2 (The Regents of the University of California, priority 2009, dated 2015)
